Measured values as given in patent US8445505B2 (IRM LLC, priority 2008, dated 2013).

What follows are compounds tested against IGF1R Ba/F3 (Homo sapiens, UniProt P08069) (assay: Ba/F3 Cell Viability Inhibition Assay (Tel-TK transformed Ba/F3 lines)). Settings: Tel-TK (IGF1R) transformed Ba/F3 cells, 48 hours incubation, cell viability (Britelite luminescence).
Type: cell-based, murine
Set-up: the printed alternative
Summary of the method: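 Murine pro-B Ba/F3 cells made IL-3-independent by TEL(1-375)- or BCR-fused tyrosine kinases; parental line run with 1 ng/ml IL-3 (final). 3750 cells/well exposed to DMSO-diluted compound for 48 h at 37 °C; viability read by Britelite luminescence. IC50 from logistic fit, concentration reducing viability to 50% of DMSO control.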

Chain of IGF1R Ba/F3 (P08069 999-1274 limits assumed): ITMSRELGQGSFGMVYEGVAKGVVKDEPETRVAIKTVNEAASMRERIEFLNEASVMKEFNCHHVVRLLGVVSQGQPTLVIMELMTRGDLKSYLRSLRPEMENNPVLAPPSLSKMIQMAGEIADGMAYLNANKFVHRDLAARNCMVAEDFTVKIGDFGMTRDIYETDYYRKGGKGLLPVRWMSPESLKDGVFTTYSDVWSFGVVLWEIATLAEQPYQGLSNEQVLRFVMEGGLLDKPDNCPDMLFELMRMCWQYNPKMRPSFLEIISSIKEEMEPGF

Row | SMILES | IC50 [nM]
1 | Cc1cc(Nc2nc(Nc3cc(C)c([C@H]4CC[C@H](N5CCCCC5)CC4)cc3F)ncc2C(F)(F)F)n[nH]1 [Compound 63, N^2-(2-fluoro-5-methyl-4-(trans-4-(piperidin-1-yl)cyclohexyl)phenyl)-N^4-(5-methyl-1H-pyrazol-3-yl)-5-(trifluoromethyl)pyrimidine-2,4-diamine] | 16
2 | Cc1cc(Nc2nc(Nc3cc(C)c([C@H]4CC[C@@H](N5CCOCC5)CC4)cc3F)ncc2C(F)(F)F)n[nH]1 [Compound 64, N2-(2-fluoro-5-methyl-4-((cis)-4-morpholinocyclohexyl)phenyl)-N4-(5-methyl-1H-pyrazol-3-yl)-5-(trifluoromethyl)pyrimidine-2,4-diamine] | 50
3 | Cc1cc(Nc2nc(Nc3cc(C)c([C@H]4CC[C@H](N5CCOCC5)CC4)cc3F)ncc2C(F)(F)F)n[nH]1 [Compound 65, N2-(2-fluoro-5-methyl-4-((trans)-4-morpholinocyclohexyl)phenyl)-N4-(5-methyl-1H-pyrazol-3-yl)-5-(trifluoromethyl)pyrimidine-2,4-diamine] | 32
4 | Cc1cc(Nc2nc(Nc3cc(C)c([C@H]4CC[C@@H](N5CCOCC5)CC4)cc3C)ncc2C(F)(F)F)n[nH]1 [Compound 66, N^2-(2,5-dimethyl-4-(cis-4-morpholinocyclohexyl)phenyl)-N^4-(5-methyl-1H-pyrazol-3-yl)-5-(trifluoromethyl)pyrimidine-2,4-diamine] | 14
5 | Cc1cc(Nc2nc(Nc3cc(C)c([C@H]4CC[C@H](N5CCOCC5)CC4)cc3C)ncc2C(F)(F)F)n[nH]1 [Compound 67, N^2-(2,5-dimethyl-4-(trans-4-morpholinocyclohexyl)phenyl)-N^4-(5-methyl-1H-pyrazol-3-yl)-5-(trifluoromethyl)pyrimidine-2,4-diamine] | 9
6 | Cc1cc(Nc2nc(Nc3cc(C)c([C@H]4CC[C@@H](N5C[C@H](O)[C@@H](O)C5)CC4)cc3F)ncc2C(F)(F)F)n[nH]1 [Compound 68, (3S,4S)-1-((cis)-4-(5-fluoro-2-methyl-4-(4-(5-methyl-1H-pyrazol-3-ylamino)-5-(trifluoromethyl)pyrimidin-2-ylamino)phenyl)cyclohexyl)pyrrolidine-3,4-diol] | 120
7 | Cc1cc(Nc2nc(Nc3cc(C)c([C@H]4CC[C@H](N5C[C@H](O)[C@@H](O)C5)CC4)cc3F)ncc2C(F)(F)F)n[nH]1 [Compound 69, (3S,4S)-1-((trans)-4-(5-fluoro-2-methyl-4-(4-(5-methyl-1H-pyrazol-3-ylamino)-5-(trifluoromethyl)pyrimidin-2-ylamino)phenyl)cyclohexyl)pyrrolidine-3,4-diol] | 302
8 | Cc1cc(Nc2nc(Nc3cc(C)c([C@H]4CC[C@H](N5C[C@@H](O)[C@H](O)C5)CC4)cc3F)ncc2C(F)(F)F)n[nH]1 [Compound 70, (3R,4R)-1-((trans)-4-(5-fluoro-2-methyl-4-(4-(5-methyl-1H-pyrazol-3-ylamino)-5-(trifluoromethyl)pyrimidin-2-ylamino)phenyl)cyclohexyl)pyrrolidine-3,4-diol] | 248
9 | Cc1cc(Nc2nc(Nc3cc(C)c([C@H]4CC[C@@H](N5C[C@@H](O)[C@H](O)C5)CC4)cc3F)ncc2C(F)(F)F)n[nH]1 [Compound 71, (3R,4R)-1-((cis)-4-(5-fluoro-2-methyl-4-(4-(5-methyl-1H-pyrazol-3-ylamino)-5-(trifluoromethyl)pyrimidin-2-ylamino)phenyl)cyclohexyl)pyrrolidine-3,4-diol] | 109
10 | Cc1cc(Nc2nc(Nc3cc(C)c([C@H]4CC[C@H](O)CC4)cc3F)ncc2Cl)n[nH]1 [Compound 72, Trans-4-(4-(5-chloro-4-(5-methyl-1H-pyrazol-3-ylamino)pyrimidin-2-ylamino)-5-fluoro-2-methylphenyl)cyclohexanol] | 99
11 | Cc1cc(Nc2nc(Nc3cc(C)c([C@H]4CC[C@@H](O)CC4)cc3F)ncc2Cl)n[nH]1 [Compound 73, Cis-4-(4-(5-chloro-4-(5-methyl-1H-pyrazol-3-ylamino)pyrimidin-2-ylamino)-5-fluoro-2-methylphenyl)cyclohexanol] | 32
12 | Cc1cc(Nc2nc(Nc3cc(C)c(-c4ccc5c(c4)CCNC5)cc3C)ncc2Cl)n[nH]1 [Compound 74, 5-chloro-N2-(2,5-dimethyl-4-(1,2,3,4-tetrahydroisoquinolin-6-yl)phenyl)-N4-(5-methyl-1H-pyrazol-3-yl)pyrimidine-2,4-diamine] | 87
13 | Cc1cc(Nc2nc(Nc3cc(C)c(-c4ccc5c(c4)CCN(C)C5)cc3C)ncc2Cl)n[nH]1 [Compound 75, 5-chloro-N2-(2,5-dimethyl-4-(2-methyl-1,2,3,4-tetrahydroisoquinolin-6-yl)phenyl)-N4-(5-methyl-1H-pyrazol-3-yl)pyrimidine-2,4-diamine] | 54
14 | Cc1cc(Nc2nc(Nc3ccc(C4CCN(CC(N)=O)CC4)c(C)n3)ncc2Cl)n[nH]1 [Compound 76, 2-(4-(6-(5-chloro-4-(5-methyl-1H-pyrazol-3-ylamino)pyrimidin-2-ylamino)-2-methylpyridin-3-yl)piperidin-1-yl)acetamide] | 1790
15 | Cc1cc(Nc2nc(Nc3ccc(C4CCN(CC(N)=O)CC4)c4ccncc34)ncc2Cl)n[nH]1 [Compound 77, 2-(4-(8-(5-chloro-4-(5-methyl-1H-pyrazol-3-ylamino)pyrimidin-2-ylamino)isoquinolin-5-yl)piperidin-1-yl)acetamide] | 3300
16 | Cc1cc(Nc2nc(Nc3ccc(C4CCN(CCS(C)(=O)=O)CC4)c4cccnc34)ncc2Cl)n[nH]1 [Compound 78, 5-chloro-N4-(5-methyl-1H-pyrazol-3-yl)-N2-(5-(1-(2-(methylsulfonyl)ethyl)piperidin-4-yl)quinolin-8-yl)pyrimidine-2,4-diamine] | 412
17 | Cc1cc(Nc2nc(Nc3cc4c(cc3F)CN(C3CCNCC3)C4=O)ncc2Cl)n[nH]1 [Compound 79, 6-(5-chloro-4-(5-methyl-1H-pyrazol-3-ylamino)pyrimidin-2-ylamino)-5-fluoro-2-(piperidin-4-yl)isoindolin-1-one] | 6400
18 | Cc1cc(Nc2nc(Nc3cc4c(cc3F)CN(C3CCNCC3)C4=O)ncc2Cl)no1 [Compound 80, 6-(5-chloro-4-(5-methylisoxazol-3-ylamino)pyrimidin-2-ylamino)-5-fluoro-2-(piperidin-4-yl)isoindolin-1-one] | 2650
19 | O=C1NCc2cc(F)c(Nc3ncc(Cl)c(Nc4cc(C5CC5)[nH]n4)n3)cc21 [Compound 81, 6-(5-chloro-4-(5-cyclopropyl-1H-pyrazol-3-ylamino)pyrimidin-2-ylamino)-5-fluoroisoindolin-1-one] | 2300
20 | Cc1cc(Nc2nc(Nc3cc4c(cc3F)CNC4=O)ncc2Cl)n[nH]1 [Compound 82, 6-(5-chloro-4-(5-methyl-1H-pyrazol-3-ylamino)pyrimidin-2-ylamino)-5-fluoroisoindolin-1-one] | 2630
21 | Cc1cc2c(Nc3ncc(Cl)c(Nc4cc(C)[nH]n4)n3)cccc2nn1 [Compound 83, 5-chloro-N4-(5-methyl-1H-pyrazol-3-yl)-N2-(3-methylcinnolin-5-yl)pyrimidine-2,4-diamine] | 1450
22 | Cc1cc(Nc2nc(Nc3cc(C)c(C4CCN(CC(N)=O)CC4)cn3)ncc2Cl)n[nH]1 [Compound 84, 2-(4-(6-(5-Chloro-4-(5-methyl-1H-pyrazol-3-ylamino)pyrimidin-2-ylamino)-4-methylpyridin-3-yl)piperidin-1-yl)acetamide] | 525
23 | Cc1cc(Nc2nc(Nc3ccc(C4CCNCC4)c4ccccc34)ncc2Cl)n[nH]1 [Compound 85, 5-chloro-N^4-(5-methyl-1H-pyrazol-3-yl)-N^2-(4-(piperidin-4-yl)naphthalene-1-yl)pyrimidine-2,4-diamine] | 493
24 | Cc1cc(Nc2nc(Nc3ccc(C4CCN(CC(N)=O)CC4)c4ccccc34)ncc2Cl)n[nH]1 [Compound 86, 2-(4-(4-(5-chloro-4-(5-methyl-1H-pyrazol-3-ylamino)pyrimidin-2-ylamino)naphthalene-1-yl)piperidin-1-yl)acetamide] | 107
25 | CNC(=O)CN1CCC(c2ccc(Nc3ncc(Cl)c(Nc4cc(C)[nH]n4)n3)c3ccccc23)CC1 [Compound 87, 2-(4-(4-(5-chloro-4-(5-methyl-1H-pyrazol-3-ylamino)pyrimidin-2-ylamino)naphthalen-1-yl)piperidin-1-yl)-N-methylacetamide] | 82
26 | Cc1cc(Nc2nc(Nc3ccc(C4CCN(CC(O)C(F)(F)F)CC4)c4ccccc34)ncc2Cl)n[nH]1 (stereo not drawn) [Compound 88, 3-(4-(4-(5-chloro-4-(5-methyl-1H-pyrazol-3-ylamino)pyrimidin-2-ylamino)naphthalen-1-yl)piperidin-1-yl)-1,1,1-trifluoropropan-2-ol] | 346
27 | CCN1CCc2ccc(Nc3ncc(Cl)c(Nc4cc(C)[nH]n4)n3)cc2CC1 [Compound 89] | 88
